Patent US20090221581A1, “Methods of treating pain” (priority 2005, published 2009)

Tested on: SNI mice
Assay: Spared nerve injury (SNI) model of chronic neuropathic pain, von Frey assay
Format: in vivo
Source text: As outlined above, the spared nerve injury (SNI) model (see FIG. 1) involves a lesion of two of the three terminal branches of the sciatic nerve (tibial and common peroneal nerves) of experimental animals, leaving the sural nerve intact. SNI results in mechanical and thermal allodynia in the non-injured sural nerve skin territory (Decosterd & Woolf, Pain 2000; 87:149-158; Tsujino et al., Mol. Cel. Neurosci. 2000; 15:170-182).
Wildtype mice (strain C3HeB/FeJ) (age, sex and weight matched) were anesthetized with Hypnorm (0.315 mg/ml fentanyl citrate+10 mg/ml fluanisone; Janssen)/Hypnovel (5 mg/ml midazolam; Roche Applied Sciences)/water at a ratio of 1:1:2 at 4 μl/g prior to surgical preparation.
Subsequently, an incision was made under aseptic precautions in the ipsi-lateral right hind leg of all mice just above the level of the knee, exposing the three terminal branches of the sciatic nerve: the common peroneal, tibial, and sural nerves. The common peroneal and tibial nerves were ligated tightly with 7/0 silk and sectioned distal to the ligation removing ≈2 mm of distal nerve stump. The sural branch remained untouched during the procedure (denoted herein “SNI ipsi”). The overlying muscle and skin was sutured, and the animals were allowed to recover and to permit wound healing. In the same mice, the sciatic nerve branches of the contra-lateral left hind leg were exposed but not lesioned (denoted herein “SNI contra-lateral”). Mice that underwent spared nerve injury are hereinafter denoted “SNI mice”.
After recovery from surgery and wound healing, SNI mice received intraperitoneal (i.p.) injections of CDK-inhibiting compounds. In particular, compound A and B as disclosed herein, belonging to the class of 4,6-disubstituted aminopyrimidine derivatives as described in WO2005/026129 were administered. […]
Injection of inhibitor or vehicle, and subsequent measurements of paw withdrawal threshold upon mechanical stimulation in von Frey assays were performed at day 0, day 7, day 21 and day 28 post SNI. Reflex nociceptive responses to mechanical stimulation were measured in a von Frey assay 30 min after each injection. An additional von Frey measurement was performed at day 14, but without prior injection of compound or vehicle.
Mice which underwent SNI and subsequent administration of the CDK-inhibiting compounds of the present invention were tested for signs of mechanical allodynia post nerve injury and post administration in a von Frey assay (Decosterd and Woolf, Pain 2000; 87:149-158). This assay determines the mechanical threshold upon which a stimulus, which normally is not painful, is recognized by an animal as uncomfortable or painful. SNI ipsi and SNI contra baselines, respectively, were established.
Mechanical thresholds of SNI mice were quantified using the up-down method based on Chaplan et al. (1994) and Malmberg and Basbaum (1998):
Mice were placed in plexiglass cylinders of about 9.5 cm in diameter, 14 cm high with four vent holes towards the top and a Plexiglas lid. The cylinders were placed on an elevated mesh surface (7×7 mm squares). Prior to the day of testing, the mice were adapted to the testing cylinders for 1-2 hours. On the day of testing the mice were adapted to the cylinders for about an hour, wherein the adaptation time depends on factors such as the strain of the mouse and the number of times they have been tested previously. In general, testing may begin once the mice are calm and stop exploring the new environment.
For testing mice, filaments 2.44, 2.83, 3.22, 3.61, 3.84, 4.08, and 4.31 (force range=0.04 to 2.0 g) were used. The […] filament was applied first. Said filament was gently applied to the plantar surface of one paw, allowed to bend, and held in position for 2-4 seconds. Whenever a positive response to the stimulus (flexion reaction) occurred, the next weaker von Frey filament was applied; whenever a negative response (no reaction) occurred, the next stronger force was applied. […]

COc1ccccc1-c1cc(Nc2cccc(S(N)(=O)=O)c2)ncn1 [Compound A]
effect on von Frey mechanical threshold (30 mg/kg at midnight and 8.00 a.m., measured 8.30 a.m., day 28 post SNI): significant increases in thresholds | effect on SNI-induced allodynia (von Frey) (30 mg/kg i.p. 30 minutes before von Frey testing): hypoalgesic effect | effect on von Frey mechanical threshold (30 mg/kg i.p. 30 minutes prior to measurements, day 21 post SNI): significant increase of threshold values | effect on von Frey mechanical threshold (30 mg/kg i.p., day 7 post SNI): does not show any effect | average von Frey threshold value, contra-lateral paw (30 mg/kg i.p., day 21 and 28): ~0.4 g | average von Frey threshold value, ipsi-lateral paw (30 mg/kg i.p., day 21 and 28): ~0.3 g
